Experimental data taken from patent US20230115640A1, “BLASTOCYST-LIKE STRUCTURES FROM EXTENDED PLURIPOTENT STEM CELLS” (Salk Institute for Biological Studies, priority 2019, published 2023).
Where “and” joins values, the source holds several entries; their conditions need not be identical. Equal entries are not always repeated.

Key:
[1] = system: mouse EPS cell aggregates; assay: EPS-blastoid formation efficiency (blastocyst-like structures / total cell aggregates) in AggreWell 3D differentiation; type: cell-based; settings: for Nblastoid/Ntotal (%), EPS-blastoid efficiency with treatment of Wnt antagonists: XAV939 5 μM or IWR-1-endo 10 μM added to medium at day 1, five days in blastoid induction medium; for EPS-blastoids formation (effect of WNT antagonists, in words): blastoid induction medium supplemented with antagonist
From the text: To further improve the differentiation conditions, different growth factors, cytokines, and small molecules were included to identify condition(s) that enable the generation of structures mimicking blastocysts (EPS-blastoids), which contain a cavity and an inner cell mass. […] Using this optimized condition, EPS-blastoids consistently emerged three days after cell seeding (FIG. 1D). EPS-blastoids continued to enlarge, reaching an early blastocyst-like size at around day five or day six. To quantify the efficiency of EPS-blastoid formation, the total number of blastocyst-like structures were counted, with this count divided it by the total number of cell aggregates.
EPS colonies were dissociated into single cells by incubation with TrypLE (Thermo Fisher Scientific, 12604-013). Cell resuspension was transferred into a 0.1% gelatin-coated plate and incubated at 37° C. for 30 min to allow irradiated MEF cells attach to the plate. The supernatant containing the EPS cells were collected, filtered through a 40 μm cell strainer, and counted using the TC-10 counter (Bio-Rad, 1450001). AggreWell 400 (STEMCELL Technologies, 34415) was prepared following the manufacturer's instructions. EPS-blastoid basal medium is composed of 25% TSC basal medium (see above), 25% N2B27 basal medium (see above), and 50% KSOM (see above). In some experiments, M16 (Sigma-Aldrich, M7292) was used to replace KSOM. Approximately 6,000 cells (five cells per microwell for 1200 microwells) were resuspended in EPS-blastoid basal medium supplemented with 2 μM ROCK inhibitor Y-27632 (Reagents Direct, 53-B80-50), 12.5 ng/ml rhFGF4 (R&D, 235F4025), 0.5 μg/ml Heparin (Sigma-Aldrich, H3149), 3 μM GSK3 inhibitor CHIR99021 (Reagents Direct, 27-H76), 5 ng/ml BMP4 (Proteintech, HZ-1040), and 0.5 μM A83-01 (Axon Medchem, 1421) and seeded into one well of the 24-well AggreWell plate. The plate was centrifuged at 300g for one minute and transferred into an incubator. The day of cell seeding was counted as day 0 of the process. Medium was removed 24 h later (day 1) and replaced with fresh medium without Y-27632. Additional medium change is optional for the rest of the EPS-blastoid formation process. Starting from day 4, blastoids were manually picked up using a mouth pipette (Sigma-Aldrich, A5177) under a stereomicroscope for analysis or downstream experiments. For testing of the effect of antagonists or inhibitors on EPS-blastoid induction, chemicals were added to the medium at day 1. XAV939 (5 μM; Tocris, 3748) or IWR-1-endo (10 μM; STEMCELL Technologies, 72562) was used to inhibit Wnt signaling. Verteporfin (2 μM; Tocris, 5305) was used to inhibit YAP/TEAD interaction. For testing whether a single EPS cell forms into a blastoid, WT cells and Puromycin+/mcherry+ cells were mixed at a ratio of 10:1 and seeded onto Aggrewell 400 as stated above. Puromycin (0.25 μg/ml; InvivoGen, ant-pr-1) was added to the medium 24 hours later to eliminate helper cells gradually.

EPS cells = assay: EPS cell survival on the day of seeding; type: cell-based, mouse; settings: treated on the day of seeding
mouse ESCs = settings: He et al., 2008; cited from earlier work

## O=C(Nc1cccc2cccnc12)c1ccc(N2C(=O)[C@@H]3[C@H](C2=O)[C@@H]2C=C[C@H]3C2)cc1 [IWR-1-endo]
[1]; per experiment
  Nblastoid/Ntotal (%), EPS-blastoid efficiency with treatment of Wnt antagonists: 0.28% and 0.41% and 1.23% and 0.81% and 0.42%
[1]
  EPS-blastoids formation (effect of WNT antagonists, in words): significantly inhibited

## Oc1nc(-c2ccc(C(F)(F)F)cc2)nc2c1CSCC2 [XAV939]
[1]; per experiment, listed as XVA939
  Nblastoid/Ntotal (%), EPS-blastoid efficiency with treatment of Wnt antagonists: 0.3% and 0.28% and 0.45% and 0.41% and 0.8%
[1]
  EPS-blastoids formation (effect of WNT antagonists, in words): significantly inhibited

## C[C@@H](N)[C@H]1CC[C@H](C(=O)Nc2ccncc2)CC1 [Y-27632]
EPS cells
  cell survival of EPS cells: enhanced cell survival

## verteporfin [VP]
[1]; verteporfin 2 μM added to medium at day 1, five days of blastoid induction, per experiment
  Nblastoid/Ntotal (%), EPS-blastoid efficiency with treatment of YAP-TEAD inhibitor: 1.43% and 0.36% and 0.87% and 1.05%

B1: Wnt-3a (protein, UniProt P56704 19-352, looked up)
Protein Wnt-3a: SYPIWWSLAVGPQYSSLGSQPILCASIPGLVPKQLRFCRNYVEIMPSVAEGIKIGIQECQHQFRGRRWNCTTVHDSLAIFGPVLDKATRESAFVHAIASAGVAFAVTRSCAEGTAAICGCSSRHQGSPGKGWKWGGCSEDIEFGGMVSREFADARENRPDARSAMNRHNNEAGRQAIASHMHLKCKCHGLSGSCEVKTCWWSQPDFRAIGDFLKDKYDSASEMVVEKHRESRGWVETLRPRYTYFKVPTERDLVYYEASPNFCEPNPETGSFGTRDRTCNVSSHGIDGCDLLCCGRGHNARAERRREKCRCVFHWCCYVSCQECTRVYDVHTCK
notes: Wnt agonist protein
Mouse ESCs
  CDX2 (trophoblast transcription factor) expression in mouse ESCs: transiently up-regulates CDX2
